From patent publication US20250345328A1, “METHODS OF TREATING A RAS RELATED DISEASE OR DISORDER” (Revolution Medicines, Inc., priority 2023, published 2025)

Experiments:
[1] = Phase 1/1b study of Compound A: safety, treatment-related adverse events; assay type: in vivo, human
Experimental: This Example describes the study design of a Phase 1/1b study of Compound A in patients with advanced solid tumors harboring specific mutations in RAS with the first patient dosed in June 2022. There are 2 parts planned in this study: Part 1: Dose Escalation and Part 2: Dose Expansion. In the Dose Escalation Phase, safety/tolerability and pharmacokinetics (PK) are assessed, and one or more candidate recommended phase 2 dose and schedule (RP2DS) for further testing in the second part of the study is determined. Enrollment in the Dose Expansion Phase begins after determination of a candidate RP2DS. Part 2 of the study further evaluates the safety/tolerability, PK, and preliminary antitumor effects within specific histotypes. Dose Expansion/Dose Optimization cohorts include RAS-mutant advanced solid tumors with specific histotypes/genotypes (including, but not limited to, NSCLC, PDAC, CRC, melanoma, gynecological cancers, other solid tumors.
Safety assessments and procedures were performed. Real-time safety monitoring was performed to ensure that the protocol-specified dose modification guidelines are followed. In addition, C1 safety and available PK and pharmacodynamic data was reviewed and evaluated at each Compound A dose level/schedule to determine whether enrollment into the next higher dose-level cohort may proceed. A modified schedule can be evaluated in which Compound A may be administered more or less frequently than once daily (QD). The totality of the data from dose escalation cohorts was reviewed and one or more candidate RP2DS for expansion in Part 2 recommended.
(§1) Compound A was administered PO QD at the following dose levels until disease progression or unacceptable toxicity: 10, 20, 40, 80, 120, 160, 220, 300, 400, and 500 mg. Progression to the next Cohort and dose level may stop if DLT is observed at a lower dose level. Other dose levels not specified but within the range listed above may also be permitted based on emergent safety and PK data.
As of Sep. 11, 2023, 131 patients received Compound A at dose levels from 10 to 400 mg QD. The majority of patients had pancreatic cancer, non-small cell lung cancer, or colorectal cancer. The most common (≥10% of patients) treatment-related adverse events (TRAEs) were rash and gastrointestinal (GI)-related toxicities that were all Grade 1 or 2 in severity. Most rashes were acneiform or maculopapular, consistent with known on-target rash presentation from other RAS pathway inhibitors. […] The most common GI-related toxicities were nausea, diarrhea, and vomiting that were manageable with standard supportive care. The median duration of treatment at the time of the data extraction was 2.27 months.

[2] = test system: human xenograft models with KRAS^G12X mutations; experiment: Human xenograft tumor models in mice; assay type: in vivo; settings: for Tumor regressions in xenograft models: mice
Text: As described herein, Compound A is a potent, orally (PO) bioavailable RAS(ON) multi-selective inhibitor, selective for the active guanosine-5′-triphosphate (GTP)-bound state (RAS(ON)) of both mutant and wild-type variants of the canonical RAS isoforms (KRAS, NRAS, and HRAS) over other members of the RAS superfamily and other cellular targets. […] Binding of Compound A to CypA results in an inhibitory complex that binds RAS(ON), forming a high-affinity tri-complex that suppresses RAS signaling by disrupting interactions with effectors.
(§2) Dose levels greater than or equal to 80 mg achieved exposures that induced tumor regressions in human xenograft models with KRAS^G12X mutations in mice (FIG. 3).

[3] = Phase 1/1b study: steady-state blood PK; assay type: in vivo, human; settings: PO QD
Text: FIG. 3 graphically depicts the mean steady-state blood PK profiles and individual steady-state blood AUC.
Whole-blood samples are collected from all subjects to measure Compound A concentrations, circulating tumor deoxyribonucleic acid (ctDNA) and other biomarkers. Samples for pharmacodynamic assays collected in Cycle 1 and beyond. Paired pretreatment and on treatment fresh tumor samples can optionally be collected from any subject if consent is obtained and at the discretion of the treating physician. Optional collection of pre-study treatment fresh biopsy should be performed prior to C1D1 dosing. An optional on-study treatment biopsy can be obtained with subject consent and at the discretion of the treating physician. The primary purpose of the optional on-study treatment biopsies is to assess pharmacodynamic markers and previously acquired pre-study treatment markers of resistance. Biopsy assessment with study intervention treatment over time may also help with better understanding of the shift in mutational profile with study treatment, as well as cellular clonality changes over time. Where tumor tissue allows, predictive biomarkers of response may be explored.
as §1, §2

[4] = Total (N = 131), 10 to 400 mg QD, as of Sep. 11, 2023
[5] = Total (N = 131), 10 to 400 mg QD, post-data extraction associated with biliary obstruction, reported as unrelated to Compound A

CCn1c(-c2cc(N3CCN(C)CC3)cnc2[C@H](C)OC)c2c3cc(ccc31)-c1csc(n1)C[C@H](NC(=O)[C@H]1C[C@@H]1C)C(=O)N1CCC[C@H](N1)C(=O)OCC(C)(C)C2 [Compound A]
Nausea TRAE, Any Grade [1, 4]: 55 (42 n (%)
Nausea TRAE, maximum severity Grade 1 [1, 4]: 41 (31) n (%)
Nausea TRAE, maximum severity Grade 2 [1, 4]: 14 (11) n (%)
Nausea TRAE, maximum severity Grade 3 [1, 4]: 0 n (%)
Nausea TRAE, maximum severity Grade 4 [1, 4]: 0 n (%)
Rash* TRAE, Any Grade [1, 4]: 92 (70) n (%)
Rash* TRAE, maximum severity Grade 1 [1, 4]: 57 (44) n (%)
Rash* TRAE, maximum severity Grade 2 [1, 4]: 29 (22) n (%)
Rash* TRAE, maximum severity Grade 3 [1, 4]: 6 (5) n (%)
Rash* TRAE, maximum severity Grade 4 [1, 4]: 0 n (%)
Stomatitis TRAE, Any Grade [1, 4]: 21 (16) n (%)
Stomatitis TRAE, maximum severity Grade 1 [1, 4]: 10 (8) n (%)
Stomatitis TRAE, maximum severity Grade 2 [1, 4]: 9 (7) n (%)
Stomatitis TRAE, maximum severity Grade 3 [1, 4]: 2 (2) n (%)
Stomatitis TRAE, maximum severity Grade 4 [1, 4]: 0 n (%)
TRAEs leading to dose reduction, Any Grade [1, 4]: 11 (8) n(%)
TRAEs leading to dose reduction, maximum severity Grade 1 [1, 4]: 0 n(%)
TRAEs leading to dose reduction, maximum severity Grade 2 [1, 4]: 9 (7) n(%)
TRAEs leading to dose reduction, maximum severity Grade 3 [1, 4]: 2 n(%)
TRAEs leading to dose reduction, maximum severity Grade 4 [1, 4]: 0 n(%)
TRAEs leading to treatment discontinuation, Any Grade [1, 4]: 1 (1) n(%)
TRAEs leading to treatment discontinuation, maximum severity Grade 1 [1, 4]: 0 n(%)
TRAEs leading to treatment discontinuation, maximum severity Grade 2 [1, 4]: 0 n(%)
TRAEs leading to treatment discontinuation, maximum severity Grade 3 [1, 4]: 0 n(%)
TRAEs leading to treatment discontinuation, maximum severity Grade 4 [1, 4]: 1 (1) n(%)
Vomiting TRAE, Any Grade [1, 4]: 36 (28) n (%)
Vomiting TRAE, maximum severity Grade 1 [1, 4]: 27 (21) n (%)
Vomiting TRAE, maximum severity Grade 2 [1, 4]: 9 (7) n (%)
Vomiting TRAE, maximum severity Grade 3 [1, 4]: 0 n (%)
Vomiting TRAE, maximum severity Grade 4 [1, 4]: 0 n (%)
ALT elevation TRAE, maximum severity Grade 3 [1, 5]: 1 (1)+ n(%)
AST elevation TRAE, maximum severity Grade 3 [1, 5]: 1 (1)+ n(%)
Discontinuation of study treatment due to death ([1]; one PDAC (120 mg) due to PD, one NSCLC (200 mg) unknown cause reported as unrelated to Compound A): Two patients discontinued study treatment due to death
Grade 4 TRAE (leading to treatment discontinuation) ([1]; one patient with PDAC treated at 80 mg, at the site of an invasive tumor): large intestine perforation
Tumor regressions in xenograft models ([2]; 10 mg/kg QD): induces tumor regressions in sensitive models
Tumor regressions in xenograft models ([2]; 25 mg/kg QD): induces tumor regressions in the majority of models
Anti-tumor activity in vivo ([2]; human xenograft tumor models, particularly KRAS^G12X): significant anti-tumor activity
Exposure in patients versus dose ([3]; blood): dose-dependent increases in exposure
Accumulation in the blood following repeated daily dosing ([3]; patients): minimal accumulation
Dose levels that achieved exposures that induced tumor regressions in human xenograft models with KRAS^G12X mutations in mice ([3]; patients, FIG. 3): greater than or equal to 80 mg
